Data taken from publication PMC5931107, “Clinical pharmacodynamic/exposure characterisation of the multikinase inhibitor ilorasertib (ABT-348) in a phase 1 dose-escalation trial” (British Journal of Cancer, 2018).
Marks after values point to notes of the source that are not given here.

Assay: Plasma pharmacokinetics, Arm II (oral BID), phase 1 trial
Assay type: in vivo, human
Experimental: Pharmacokinetics of ilorasertib were evaluated in the dose-escalation cohort on blood samples that were collected on cycle 1 days 1 and 15. Parameters determined: Cmax, time to Cmax (Tmax), terminal phase elimination half-life (t1/2), clearance, apparent oral clearance (CL/F), and area under the plasma concentration-time curve from time 0 to time of last measurable concentration (AUCt) and from time 0 to infinity (AUC∞). For Arm I, blood samples were collected prior to dosing and at 0.5, 1, 2, 3, 4, 6, 8, 10 or 12, and 24 h after dosing on cycle 1 days 1 and 15; of note, for institutions not able to collect the 10- or 12-h post-dose sample, the 24-h sample was replaced with 22-h and 28-h post-dose samples. In Arm II, for the first dose, blood samples were collected pre-dose and at 1, 2, 3, and 4 h post-dose on cycle 1 days 1 and 15; for the second dose, samples were collected pre-dose and at 1, 2, 3, 4, 18, and 24 h after second dose on cycle 1 days 1 and 15. In Arm III, blood samples were collected prior to infusion, at 1 h 55 min (just before end of infusion), and at 0.5, 1, 2, 4, 6, 8, 10, and 24 h after end of infusion on cycle 1 days 1 and 15; here also, for institutions not able to collect the 8-h or 10-h after-end-of-infusion samples, the 24-h sample was replaced with 22-h and 28-h post-dose samples. The liquid chromatography (LC)-mass spectrometry (MS)/MS method was developed and validated in the Bioanalysis Department of AbbVie. Fifty microliter of human plasma (K2EDTA as anticoagulant) was fortified with 300 μL of deuterium-stable labelled internal standard and mixed well. A HybridSPE precipitation plate (50 mg/96 wells, Supelco Analytical, Munich, Germany) was used to directly load and elute (under slight vacuum) the fortified samples into a clean collection plate. Samples were dried before reconstitution with 100 μL of 20/80 (v/v) acetonitrile/water, and injected for LC-MS/MS analysis. A Halo C8 (Wilmington, DE, USA; 2.7 μm, 2.1 × 30 mm) was used on an Agilent 1290 Infinity UPLC pump (Agilent Technologies, Santa Clara, CA) to carry out the separation. An isocratic condition with 25/75/0.1 (v/v/v) acetonitrile/water/98% formic acid was used as the mobile phase. The flow rate was set to be 0.6 mL/min. An MPS 3 C ([…] Ruhr, Germany) autosampler was used to introduce samples onto the UPLC system. An API 4000 mass spectrometer (Applied Biosystems, Foster City, CA) was used in the multiple reactions monitoring mode for the detection and quantitation of analyte. Descriptive statistics were used for demographic variables. The numbers and percentages of patients with treatment-emergent AEs (TEAEs) were tabulated using the Medical Dictionary for Regulatory Activities version 16.0 system organ class and preferred term, and further classified according to CTCAE version 4.0 criteria. The safety data set included all patients who received one or more doses of ilorasertib. The pharmacokinetic data set included all patients who received one or more doses of ilorasertib and had one or more pharmacokinetic samples. Values for pharmacokinetic parameters were determined using non-compartmental methods, with data analysed separately for each arm. A repeated measures analysis was performed for Tmax and dose-normalised Cmax, AUCt, and AUC∞. The model included random effects for patient and fixed effects for dose level, day, and the interaction of dose level and day. To assess effects of exposure on pharmacodynamic biomarkers, Cmax was employed as the directly measured marker of exposure for the rapid changes in DBP and PlGF pre-steady-state, while AUC∞ reflected exposure variability at the time of post-multiple-dose skin biopsy. Descriptive statistics were used to summarise ECOG performance status. The efficacy data set included all patients who received one or more doses of ilorasertib.

[1] = Arm II PO BID 40 mg, day 1, N=2, mean (individual)
[2] = Arm II PO BID 40 mg, day 15, N=3
[3] = Arm II PO BID 60 mg, day 1, N=3
[4] = Arm II PO BID 60 mg, day 15, N=1
[5] = Arm II PO BID 60 mg, day 15, N=3
[6] = Arm II PO BID 90 mg, day 1, N=2, mean (individual)
[7] = Arm II PO BID 90 mg, day 1, N=3
[8] = Arm II PO BID 90 mg, day 15, N=2, mean (individual)
[9] = Arm II PO BID 90 mg, day 15, N=3
[10] = Arm II PO BID 130 mg, day 1, N=3
[11] = Arm II PO BID 130 mg, day 1, N=4
[12] = Arm II PO BID 130 mg, day 15, N=1
[13] = Arm II PO BID 130 mg, day 15, N=3
[14] = Arm II PO BID 190 mg, day 1, N=4
[15] = Arm II PO BID 190 mg, day 1, N=7
[16] = Arm II PO BID 190 mg, day 15, N=2, mean (individual)
[17] = Arm II PO BID 190 mg, day 15, N=5
[18] = Arm II PO BID 230 mg, day 1, N=2, mean (individual)
[19] = Arm II PO BID 230 mg, day 1, N=3
[20] = Arm II PO BID 230 mg, day 15, N=1
[21] = Arm II PO BID 230 mg, day 15, N=4
[22] = Arm II PO BID 340 mg, day 1, N=1
[23] = Arm II PO BID 340 mg, day 1, N=3
[24] = Arm II PO BID 340 mg, day 15, N=1
[25] = Arm II PO BID all doses, day 1, N=14
[26] = Arm II PO BID all doses, day 1, N=26
[27] = Arm II PO BID all doses, day 15, N=7
[28] = Arm II PO BID all doses, day 15, N=22

## Nc1ncc(-c2cnn(CCO)c2)c2scc(-c3ccc(NC(=O)Nc4cccc(F)c4)cc3)c12 [ilorasertib, Ilorasertib]
[1]
  AUC∞/dose: 49.9 (35.6, 64.1)^b ng•h/mL/mg
  CL/F: 21.8 (28.1, 15.6)^b L/h
Arm II PO BID 40 mg, day 1, N=3
  AUCt/dose: 46.5 ± 20.5 ng·h/mL/mg
[2]
  AUCt/dose: 46.9 ± 25.6 ng·h/mL/mg
  Cmax/dose: 2.4 ± 1.3 ng/mL/mg
[3]
  AUCt/dose: 45.4 ± 12.2 ng·h/mL/mg
  Cmax/dose: 3.2 ± 1.2 ng/mL/mg
[4]
  AUC∞/dose: 45.3^b ng•h/mL/mg
  CL/F: 22.1^b L/h
[5]
  AUCt/dose: 24.3 ± 5.9 ng·h/mL/mg
  Cmax/dose: 1.9 ± 0.47 ng/mL/mg
[6]
  AUC∞/dose: 22.4 (14.1, 30.6)^b ng•h/mL/mg
  CL/F: 51.7 (70.7, 32.6)^b L/h
[7]
  AUCt/dose: 21.8 ± 8.5 ng·h/mL/mg
  Cmax: 0.30 ± 0.1 µg/mL
  Cmax/dose: 1.7 ± 0.6 ng/mL/mg
[8]
  AUC∞/dose: 29.6 (41.1, 18.1)^c ng•h/mL/mg
  CL/F: 39.8 (24.3, 55.2)^c L/h
  t1/2 (harmonic mean): 16.2 (23.4, 12.4)^c h
[9]
  AUCt/dose: 22.5 ± 8.4 ng·h/mL/mg
  Cmax/dose: 1.8 ± 0.54 ng/mL/mg
[10]
  AUC∞/dose: 25.1 ± 17.2^c ng•h/mL/mg
  CL/F: 51.5 ± 25.9^c L/h
[11]
  AUCt/dose: 19.5 ± 12.2 ng·h/mL/mg
  Cmax/dose: 2.3 ± 1.5 ng/mL/mg
[12]
  AUC∞/dose: 15.2^b ng•h/mL/mg
  CL/F: 65.7^b L/h
[13]
  AUCt/dose: 9.2 ± 5.0 ng·h/mL/mg
  Cmax/dose: 1.0 ± 1.1 ng/mL/mg
[14]
  AUC∞/dose: 46.8 ± 29.7^d ng•h/mL/mg
  CL/F: 29.6 ± 17.9^d L/h
  t1/2 (harmonic mean): 13.7 ± 9.0^d h
[15]
  AUCt: 8.10 ± 4.44 µg·h/mL
  AUCt/dose: 21.3 ± 11.7 ng·h/mL/mg
  Cmax/dose: 1.4 ± 0.8 ng/mL/mg
[16]
  AUC∞/dose: 28.0 (20.9, 35.2)^c ng•h/mL/mg
  CL/F: 38.1 (47.8, 28.4)^c L/h
[17]
  AUCt/dose: 17.6 ± 13.7 ng·h/mL/mg
  Cmax/dose: 1.7 ± 1.0 ng/mL/mg
[18]
  AUC∞/dose: 19.9 (18.1, 21.7)^b ng•h/mL/mg
  CL/F: 50.8 (55.4, 46.1)^b L/h
[19]
  AUCt/dose: 21.9 ± 7.9 ng·h/mL/mg
  Cmax/dose: 1.5 ± 0.5 ng/mL/mg
[20]
  AUC∞/dose: 28.2^b ng•h/mL/mg
  CL/F: 35.5^b L/h
[21]
  AUCt/dose: 24.4 ± 9.4 ng·h/mL/mg
  Cmax/dose: 1.7 ± 1.0 ng/mL/mg
[22]
  AUC∞/dose: 145^e ng•h/mL/mg
  CL/F: 6.9^e L/h
[23]
  AUCt/dose: 57.8 ± 21.8 ng·h/mL/mg
  Cmax/dose: 3.0 ± 1.3 ng/mL/mg
[24]
  AUCt/dose: 23.0 ng·h/mL/mg
  Cmax/dose: 1.1 ng/mL/mg
[25]
  AUC∞/dose: 42.3 ± 36.5^f ng•h/mL/mg
  CL/F: 37.7 ± 21.8^f L/h
  t1/2 (harmonic mean): 13.0 ± 6.2^f h
[26]
  AUCt/dose: 31.1 ± 18.8 ng·h/mL/mg
  Cmax/dose: 2.2 ± 1.2 ng/mL/mg
[27]
  AUC∞/dose: 29.1 ± 11.7^d ng•h/mL/mg
  CL/F: 39.9 ± 16.7^d L/h
  t1/2 (harmonic mean): 9.9 ± 3.7^d h
[28]
  AUCt/dose: 23.5 ± 15.5 ng·h/mL/mg
  Cmax/dose: 1.7 ± 0.9 ng/mL/mg
